Measured values taken from paper PMC5513037, “Examining the influence of specificity ligands and ATP-competitive ligands on the overall effectiveness of bivalent kinase inhibitors” (Proteome Science, 2017).

Columns and labels:
Test in all cases: KAM-matrix competition in K562 lysate;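 for 0.001 uM KAM: median log10 fold change of treatment over DMSO control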;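 for 0.01 uM KAM: median log10 fold change of treatment over DMSO control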;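 for 0.1 uM KAM: median log10 fold change of treatment over DMSO control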;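 for 1 uM KAM: median log10 fold change of treatment over DMSO control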;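 for 10 uM KAM: median log10 fold change of treatment over DMSO control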
Type in all cases: binding
CLK1 = target: T1, CLK1 (Homo sapiens, UniProt P49759)
T1 construct: endogenous in cells; host or cells: K562
Protocol: (§1) Supplement 12953_2017_125_MOESM1_ESM.zip/MS_Supp Info.xlsx, sheet "KAM" | column: 10 uM KAM; 1 uM KAM; 0.1 uM KAM; 0.01 uM KAM; 0.001 uM KAM; RB50

FGFR3 = target: T2, FGFR3 (Homo sapiens, UniProt P22607)
T2 construct: endogenous in cells; host or cells: K562
Protocol: as §1

LYN = target: T3, LYN (Homo sapiens, UniProt P07948)
T3 construct: endogenous in cells; host or cells: K562
Protocol: as §1

MAP2K7 = target: T4, MAP2K7 (Homo sapiens, UniProt O14733);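 for 0.001 uM KAM: median log10 fold change of treatment over DMSO control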;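 for 0.01 uM KAM: median log10 fold change of treatment over DMSO control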;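 for 0.1 uM KAM: median log10 fold change of treatment over DMSO control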;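 for 1 uM KAM: median log10 fold change of treatment over DMSO control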;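 for 10 uM KAM: median log10 fold change of treatment over DMSO control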
T4 construct: endogenous in cells; host or cells: K562
T4 sequence (O14733 1-419): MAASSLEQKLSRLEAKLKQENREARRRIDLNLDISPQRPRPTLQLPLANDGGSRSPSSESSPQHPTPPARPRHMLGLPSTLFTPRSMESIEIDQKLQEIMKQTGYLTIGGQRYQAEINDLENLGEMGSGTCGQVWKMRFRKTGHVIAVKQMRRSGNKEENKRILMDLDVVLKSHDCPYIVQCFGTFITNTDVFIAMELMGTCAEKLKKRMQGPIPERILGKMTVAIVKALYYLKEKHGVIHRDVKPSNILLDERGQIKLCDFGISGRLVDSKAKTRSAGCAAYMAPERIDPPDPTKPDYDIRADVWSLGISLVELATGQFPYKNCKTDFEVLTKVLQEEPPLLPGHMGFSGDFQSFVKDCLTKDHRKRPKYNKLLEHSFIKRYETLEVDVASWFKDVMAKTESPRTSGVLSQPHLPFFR
Protocol: as §1

PIK3R4 = target: T5, PIK3R4 (Homo sapiens, UniProt Q99570);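 for 0.001 uM KAM: median log10 fold change of treatment over DMSO control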;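 for 0.01 uM KAM: median log10 fold change of treatment over DMSO control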;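 for 0.1 uM KAM: median log10 fold change of treatment over DMSO control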;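 for 1 uM KAM: median log10 fold change of treatment over DMSO control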;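 for 10 uM KAM: median log10 fold change of treatment over DMSO control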
T5 construct: endogenous in cells; host or cells: K562
Protocol: as §1

TAOK1 = target: T6, TAOK1 (Homo sapiens, UniProt Q7L7X3)
T6 construct: endogenous in cells; host or cells: K562 cell lysate
T6 sequence (Q7L7X3 1-1001): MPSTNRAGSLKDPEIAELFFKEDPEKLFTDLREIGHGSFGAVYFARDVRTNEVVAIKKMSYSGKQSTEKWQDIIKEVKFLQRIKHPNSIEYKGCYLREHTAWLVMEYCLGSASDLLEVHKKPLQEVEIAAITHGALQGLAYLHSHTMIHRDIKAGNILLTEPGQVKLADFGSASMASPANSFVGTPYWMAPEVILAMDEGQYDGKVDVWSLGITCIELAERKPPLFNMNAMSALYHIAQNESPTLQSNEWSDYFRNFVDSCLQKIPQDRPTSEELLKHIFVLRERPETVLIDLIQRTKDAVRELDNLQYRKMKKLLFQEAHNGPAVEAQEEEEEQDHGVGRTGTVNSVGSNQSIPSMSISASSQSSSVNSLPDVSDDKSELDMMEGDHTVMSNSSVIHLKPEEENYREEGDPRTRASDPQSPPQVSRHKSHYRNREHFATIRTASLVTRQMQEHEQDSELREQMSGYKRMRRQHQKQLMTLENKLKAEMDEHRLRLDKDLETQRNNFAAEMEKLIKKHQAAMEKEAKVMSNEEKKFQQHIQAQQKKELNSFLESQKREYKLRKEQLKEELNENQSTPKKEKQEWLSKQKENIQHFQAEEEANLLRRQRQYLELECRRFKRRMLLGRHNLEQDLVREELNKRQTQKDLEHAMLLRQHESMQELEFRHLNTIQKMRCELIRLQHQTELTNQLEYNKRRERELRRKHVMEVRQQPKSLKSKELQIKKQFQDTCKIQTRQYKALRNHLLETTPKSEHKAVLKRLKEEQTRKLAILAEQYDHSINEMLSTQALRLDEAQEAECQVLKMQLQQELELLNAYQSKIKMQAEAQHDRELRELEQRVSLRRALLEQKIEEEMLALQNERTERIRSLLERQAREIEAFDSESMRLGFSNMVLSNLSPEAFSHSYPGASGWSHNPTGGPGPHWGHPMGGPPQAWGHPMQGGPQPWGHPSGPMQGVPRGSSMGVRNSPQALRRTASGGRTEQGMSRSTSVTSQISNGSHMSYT
Protocol: as §1

TYK2 = target: T7, TYK2 (Homo sapiens, UniProt P29597)
T7 construct: endogenous in cells; host or cells: K562
Protocol: as §1

[1] = read-out: RB50 (the source's name)
[2] = KAM 0.001-10 uM, read-out: RB50 (the source's name)

T3 sequence (P07948 whole entry): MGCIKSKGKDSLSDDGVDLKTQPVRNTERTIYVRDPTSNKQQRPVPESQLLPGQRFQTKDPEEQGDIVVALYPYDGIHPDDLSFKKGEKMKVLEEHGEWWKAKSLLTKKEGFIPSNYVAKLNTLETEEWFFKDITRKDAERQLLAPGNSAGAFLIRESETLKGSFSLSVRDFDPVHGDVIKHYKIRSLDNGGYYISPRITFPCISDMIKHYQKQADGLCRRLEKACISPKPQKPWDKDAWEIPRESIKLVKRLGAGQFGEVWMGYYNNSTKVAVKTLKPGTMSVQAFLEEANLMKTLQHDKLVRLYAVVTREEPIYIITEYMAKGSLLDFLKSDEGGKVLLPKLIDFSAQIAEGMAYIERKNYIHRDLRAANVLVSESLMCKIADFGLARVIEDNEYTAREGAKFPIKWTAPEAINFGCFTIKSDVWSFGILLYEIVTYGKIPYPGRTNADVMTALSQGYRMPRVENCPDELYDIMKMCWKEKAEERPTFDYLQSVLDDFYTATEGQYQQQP
T5 sequence (Q99570 2-1358 limits assumed): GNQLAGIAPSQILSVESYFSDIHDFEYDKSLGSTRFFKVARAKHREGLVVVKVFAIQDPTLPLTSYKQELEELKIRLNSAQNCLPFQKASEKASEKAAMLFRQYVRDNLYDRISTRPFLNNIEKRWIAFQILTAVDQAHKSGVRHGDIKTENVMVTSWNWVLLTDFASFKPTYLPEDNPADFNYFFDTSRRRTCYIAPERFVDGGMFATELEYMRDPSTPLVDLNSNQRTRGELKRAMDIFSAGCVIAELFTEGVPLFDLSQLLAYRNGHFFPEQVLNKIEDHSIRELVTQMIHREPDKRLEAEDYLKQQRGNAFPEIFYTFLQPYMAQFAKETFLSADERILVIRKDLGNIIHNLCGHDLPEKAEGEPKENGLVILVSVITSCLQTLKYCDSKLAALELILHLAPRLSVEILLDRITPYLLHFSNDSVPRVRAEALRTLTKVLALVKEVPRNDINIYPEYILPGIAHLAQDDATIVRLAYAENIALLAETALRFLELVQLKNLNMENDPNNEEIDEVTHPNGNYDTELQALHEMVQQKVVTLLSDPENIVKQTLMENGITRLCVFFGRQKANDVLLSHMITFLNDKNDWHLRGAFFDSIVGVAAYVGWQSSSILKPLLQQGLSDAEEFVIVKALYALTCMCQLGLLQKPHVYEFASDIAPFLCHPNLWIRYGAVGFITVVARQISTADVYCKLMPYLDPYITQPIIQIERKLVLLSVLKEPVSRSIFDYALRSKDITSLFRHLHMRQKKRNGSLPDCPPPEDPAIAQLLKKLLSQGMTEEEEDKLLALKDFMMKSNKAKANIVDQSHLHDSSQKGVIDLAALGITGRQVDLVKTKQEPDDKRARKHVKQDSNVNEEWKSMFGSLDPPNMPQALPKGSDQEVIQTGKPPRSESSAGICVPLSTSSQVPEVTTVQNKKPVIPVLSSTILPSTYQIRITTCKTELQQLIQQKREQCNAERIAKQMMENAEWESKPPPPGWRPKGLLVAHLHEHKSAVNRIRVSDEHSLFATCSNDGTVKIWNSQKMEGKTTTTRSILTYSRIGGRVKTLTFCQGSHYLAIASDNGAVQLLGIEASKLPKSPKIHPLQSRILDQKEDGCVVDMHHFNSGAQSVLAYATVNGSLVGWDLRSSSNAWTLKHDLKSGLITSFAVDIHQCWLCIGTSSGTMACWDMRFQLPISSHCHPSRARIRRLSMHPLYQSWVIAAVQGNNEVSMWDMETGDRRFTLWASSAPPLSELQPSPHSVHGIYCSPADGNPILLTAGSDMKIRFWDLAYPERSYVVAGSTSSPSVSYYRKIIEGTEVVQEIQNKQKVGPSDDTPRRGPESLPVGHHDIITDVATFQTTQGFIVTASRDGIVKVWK
T5 sequence (Q8NEB9 whole entry partner): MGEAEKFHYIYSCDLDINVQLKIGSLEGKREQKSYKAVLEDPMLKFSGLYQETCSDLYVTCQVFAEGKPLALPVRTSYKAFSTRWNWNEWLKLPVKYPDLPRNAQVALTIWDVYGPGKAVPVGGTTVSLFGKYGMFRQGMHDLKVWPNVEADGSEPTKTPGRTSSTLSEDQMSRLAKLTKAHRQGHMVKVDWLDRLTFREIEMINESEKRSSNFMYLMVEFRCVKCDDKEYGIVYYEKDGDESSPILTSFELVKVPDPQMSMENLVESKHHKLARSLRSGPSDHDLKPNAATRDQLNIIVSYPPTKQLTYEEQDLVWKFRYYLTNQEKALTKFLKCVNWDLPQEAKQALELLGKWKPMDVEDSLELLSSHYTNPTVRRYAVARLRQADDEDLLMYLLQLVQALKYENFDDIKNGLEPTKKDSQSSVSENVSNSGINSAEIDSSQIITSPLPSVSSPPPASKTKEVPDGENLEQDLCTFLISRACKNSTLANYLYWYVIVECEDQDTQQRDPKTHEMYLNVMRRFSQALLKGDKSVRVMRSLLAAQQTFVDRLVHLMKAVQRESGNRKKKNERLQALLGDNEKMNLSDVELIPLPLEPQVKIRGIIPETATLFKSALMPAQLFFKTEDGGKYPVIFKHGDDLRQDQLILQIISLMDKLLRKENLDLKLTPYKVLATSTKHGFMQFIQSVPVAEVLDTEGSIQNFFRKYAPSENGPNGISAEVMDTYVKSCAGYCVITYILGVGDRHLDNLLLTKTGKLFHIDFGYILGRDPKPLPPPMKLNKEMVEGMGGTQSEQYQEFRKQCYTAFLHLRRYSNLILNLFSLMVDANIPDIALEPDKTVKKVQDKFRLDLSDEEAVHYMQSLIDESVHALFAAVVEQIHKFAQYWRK
T1 sequence (P49759 whole entry): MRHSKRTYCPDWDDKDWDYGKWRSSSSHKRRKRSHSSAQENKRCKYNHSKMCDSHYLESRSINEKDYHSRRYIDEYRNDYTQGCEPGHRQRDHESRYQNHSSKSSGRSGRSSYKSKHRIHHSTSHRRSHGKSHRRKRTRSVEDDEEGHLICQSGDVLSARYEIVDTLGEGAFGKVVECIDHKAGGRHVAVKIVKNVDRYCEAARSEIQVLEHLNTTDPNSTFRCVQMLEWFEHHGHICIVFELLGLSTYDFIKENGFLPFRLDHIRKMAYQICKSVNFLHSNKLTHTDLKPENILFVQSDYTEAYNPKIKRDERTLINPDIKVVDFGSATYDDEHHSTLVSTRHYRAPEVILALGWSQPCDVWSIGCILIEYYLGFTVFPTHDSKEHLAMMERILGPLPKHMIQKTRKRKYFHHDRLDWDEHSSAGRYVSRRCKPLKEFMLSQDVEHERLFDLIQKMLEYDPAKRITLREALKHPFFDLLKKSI
T2 sequence (P22607 23-806): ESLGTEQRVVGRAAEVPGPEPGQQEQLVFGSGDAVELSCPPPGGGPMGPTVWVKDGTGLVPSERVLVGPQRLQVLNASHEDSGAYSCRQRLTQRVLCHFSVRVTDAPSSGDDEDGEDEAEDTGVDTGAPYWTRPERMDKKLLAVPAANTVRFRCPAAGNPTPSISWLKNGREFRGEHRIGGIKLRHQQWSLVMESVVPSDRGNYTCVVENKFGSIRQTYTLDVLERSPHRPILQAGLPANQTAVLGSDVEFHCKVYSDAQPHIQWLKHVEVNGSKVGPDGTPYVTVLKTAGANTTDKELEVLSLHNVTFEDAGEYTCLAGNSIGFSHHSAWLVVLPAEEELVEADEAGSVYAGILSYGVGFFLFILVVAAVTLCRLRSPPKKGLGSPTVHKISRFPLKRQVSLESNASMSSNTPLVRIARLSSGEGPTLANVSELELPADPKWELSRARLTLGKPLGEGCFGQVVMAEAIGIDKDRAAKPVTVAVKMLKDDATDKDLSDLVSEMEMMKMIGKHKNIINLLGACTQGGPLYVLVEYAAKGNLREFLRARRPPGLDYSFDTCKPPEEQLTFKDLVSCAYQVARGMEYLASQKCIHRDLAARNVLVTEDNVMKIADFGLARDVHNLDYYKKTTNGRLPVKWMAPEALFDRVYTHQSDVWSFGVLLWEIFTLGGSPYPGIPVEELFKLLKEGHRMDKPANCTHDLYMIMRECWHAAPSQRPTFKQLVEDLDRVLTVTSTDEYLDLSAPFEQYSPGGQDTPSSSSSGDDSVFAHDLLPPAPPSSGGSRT

SMILES: N#CCc1ccc(Nc2nc(NCCCN)cc(Nc3cc(C4CC4)[nH]n3)n2)cc1 [KAM]
- median Log10 fold change (CLK1; 0.001 uM KAM): 0.02063
- median Log10 fold change (CLK1; 0.01 uM KAM): -0.05735
- median Log10 fold change (CLK1; 0.1 uM KAM): -0.2418
- median Log10 fold change (CLK1; 1 uM KAM): -0.3053
- median Log10 fold change (CLK1; 10 uM KAM): -0.4001
- IC50 (CLK1; [1]): 858 nM
- median Log10 fold change (FGFR3; 0.001 uM KAM): 0.01443
- median Log10 fold change (FGFR3; 0.01 uM KAM): 0.001015
- median Log10 fold change (FGFR3; 0.1 uM KAM): -0.1738
- median Log10 fold change (FGFR3; 1 uM KAM): -0.319
- median Log10 fold change (FGFR3; 10 uM KAM): -0.3424
- IC50 (FGFR3; [1]): 1160 nM
- median Log10 fold change (LYN; 0.001 uM KAM): -0.01474
- median Log10 fold change (LYN; 0.01 uM KAM): -0.009336
- median Log10 fold change (LYN; 0.1 uM KAM): -0.1214
- median Log10 fold change (LYN; 1 uM KAM): -0.4299
- median Log10 fold change (LYN; 10 uM KAM): -0.513
- IC50 (LYN; [1]): 601 nM
- IC50 (MAP2K7; [2]): > 10000 nM
- 0.001 uM KAM (MAP2K7; relative to 0 uM KAM = 0): 0.00178
- 0.01 uM KAM (MAP2K7; relative to 0 uM KAM = 0): -0.02319
- 0.1 uM KAM (MAP2K7; relative to 0 uM KAM = 0): -0.04803
- 1 uM KAM (MAP2K7; relative to 0 uM KAM = 0): -0.07056
- 10 uM KAM (MAP2K7; relative to 0 uM KAM = 0): -0.08653
- IC50 (PIK3R4; [2]): > 10000 nM
- 0.001 uM KAM (PIK3R4; relative to 0 uM KAM = 0): -0.04609
- 0.01 uM KAM (PIK3R4; relative to 0 uM KAM = 0): 0.02295
- 0.1 uM KAM (PIK3R4; relative to 0 uM KAM = 0): -0.02338
- 1 uM KAM (PIK3R4; relative to 0 uM KAM = 0): -0.03171
- 10 uM KAM (PIK3R4; relative to 0 uM KAM = 0): -0.01923
- median Log10 fold change (TAOK1; 0.001 uM KAM): 0.00525
- median Log10 fold change (TAOK1; 0.01 uM KAM): 0.00511
- median Log10 fold change (TAOK1; 0.1 uM KAM): -0.09468
- median Log10 fold change (TAOK1; 1 uM KAM): -0.2373
- median Log10 fold change (TAOK1; 10 uM KAM): -0.3152
- IC50 (TAOK1; [1]): 4150 nM
- median Log10 fold change (TYK2; 0.001 uM KAM): -0.01748
- median Log10 fold change (TYK2; 0.01 uM KAM): -0.01468
- median Log10 fold change (TYK2; 0.1 uM KAM): -0.1723
- median Log10 fold change (TYK2; 1 uM KAM): -0.4058
- median Log10 fold change (TYK2; 10 uM KAM): -0.4958
- IC50 (TYK2; [1]): 536 nM
